# Measurements: US8420676B2, “Oxazolidinone derivatives” (Dong-A Pharmaceuticals Co. Ltd., priority 2003, dated 2013)
# Structures can show the parent of a compound that is named as a salt.
# Experiments:
# [1] = Assay for solubility in distilled water (turbidity by naked eye); format: physicochemical; conditions: average of three runs; for solubility at 2 min: thermodynamic from solid
# Description: The derivatives of the present invention were added to 200 μl of distilled water and then the solution was stirred for 2 minutes. The turbidity of the solution was watched through naked eye.
# When the derivatives were not dissolved completely, 50 μl of distilled water was added to the solution and then the turbidity of the solution was assayed in the above manner to find a point of becoming transparent solution.
# When 2 mg of the derivatives was first added to distilled water and completely dissolved so that the solution became transparent, 2 mg of the derivatives was added more to the solution and then state of the solution was watched. The derivatives of the present invention were added to the five times and then solubility of the solution was assayed for. The assay for solubility was carried out the three times repeatedly in the above method and the results were averaged.
# [2] = tested on: methicillin resistant Staphylococcus aureus (MRSA); experiment: Assay for in vitro antibacterial activity, agar dilution (MRSA); conditions: read-out: Minimum Inhibitory Concentration (MIC50) MRSA
# [3] = tested on: vancomycin resistant Enterococci (VRE); experiment: Assay for in vitro antibacterial activity, agar dilution (VRE); conditions: Enterococcus, read-out: Minimum Inhibitory Concentration (MIC50) VRE
# ICR mice = experiment: Test of acute toxicity by oral administration to mouse; format: in vivo; conditions: 1% hydroxypropylmethylcellulose, observed 2 weeks
# Description: To test acute toxicity of the compounds of the present invention, the following experiment was carried out.
# A mixture of 1% hydroxypropylmethylcellulose and 200 mg of one selected from the group consisting of the compounds 10, 12, 16, 17, 20, 22, 24 and 27 was administrated to 5 ICR mice (5-Week old males, 20 g±2 g by weight). And then lethality for 2 weeks, weight, symptoms etc. was watched to determine Minimum Lethal Dose (MLD, mg/kg). […]
Compound,solubility at 2 min [1],MIC50 [2],MIC50 [3],also measured
"Cc1nnc(-c2ccc(-c3ccc(N4C[C@H](COP(=O)([O][Na+])[O][Na+])OC4=O)cc3F)cn2)o1 [Compound 60, (R)-[3-(4-(2-(2-methyl-[1,3,4]oxadiazol-5-yl)pyridin-5-yl)-3-fluorophenyl)-2-oxo-5-oxazolidinyl]methyl disodiumphosphate]",> 50 mg/mL,0.5 µg/mL,1 µg/mL,
"Cc1nnc(-c2ccc(-c3ccc(N4C[C@H](COC(=O)[C@@H]5CCCN5)OC4=O)cc3F)cn2)o1 [Compound 55, (R)-3-(4-(2-(2-methyl-[1,3,4]oxadiazol-5-yl)pyridin-5-yl)-3-fluorophenyl)-5-(L-prolinyloxy)methyl oxazolidin-2-one trifluoroacetic acid]",7.2 mg/mL,,,
"Cn1nnnc1-c1ccc(-c2ccc(N3C[C@H](COC(=O)CN)OC3=O)cc2F)cn1 [Compound 62, (R)-3-(4-(2-(1-methyltetrazol-5-yl)pyridin-5-yl)-3-fluorophenyl)-5-glycyloxymethyl oxazolidin-2-one trifluoroacetic acid]",28 mg/mL,,,
"Cc1nnc(-c2ccc(-c3ccc(N4C[C@H](COC(=O)[C@@H]5CCCN5)OC4=O)cc3F)cn2)o1.Cl [Compound 56, (R)-3-(4-(2-(2-methyl-[1,3,4]oxadiazol-5-yl)pyridin-5-yl)-3-fluorophenyl)-5-(L-prolinyloxy)methyl oxazolidin-2-one hydrochloride]",> 50 mg/mL,0.5 µg/mL,1 µg/mL,
"Cc1nnc(-c2ccc(-c3ccc(N4C[C@H](COC(=O)CCN)OC4=O)cc3F)cn2)o1.Cl [Compound 58, (R)-3-(4-(2-(2-methyl-[1,3,4]oxadiazol-5-yl)pyridin-5-yl)-3-fluorophenyl)-5-(β-alanyloxy)methyl oxazolidin-2-one hydrochloride]",5.5 mg/mL,0.5 µg/mL,1 µg/mL,
"Cn1nnnc1-c1ccc(-c2ccc(N3C[C@H](COP(=O)([O-])[O-])OC3=O)cc2F)cn1.[Na+].[Na+] [Compound 70, (R)-[3-(4-(2-(1-methyltetrazol-5-yl)pyridin-5-yl)-3-fluorophenyl)-2-oxo-5-oxazolidinyl]methyl disodiumphosphate]",> 50 mg/mL,0.5 µg/mL,0.25 µg/mL,
"CC(C)[C@H](N)C(=O)OC[C@H]1CN(c2ccc(-c3ccc(-c4nnn(C)n4)nc3)c(F)c2)C(=O)O1.Cl [Compound 43, (R)-3-(4-(2-(2-methyltetrazol-5-yl)pyridin-5-yl)-3-fluorophenyl)-5-(L-valyloxy)methyl oxazolidin-2-one hydrochloride]",,0.5 µg/mL,0.25 µg/mL,Solubility [1]: 4.2 mg/mL
"Cn1nnc(-c2ccc(-c3ccc(N4C[C@H](COC(=O)[C@@H]5CCCN5)OC4=O)cc3F)cn2)n1 [Compound 46, (R)-3-(4-(2-(2-methyltetrazol-5-yl)pyridin-5-yl)-3-fluorophenyl)-5-(L-prolinyloxy)methyl oxazolidin-2-one trifluoroacetic acid]",< 1.63 mg/mL,,,
"O=C1O[C@@H](CO)CN1c1ccc(-c2ccc(-n3ccnn3)nc2)c(F)c1 [Compound 24, (R)-3-(4-(2-([1,2,3]triazol-1-yl)pyridin-5-yl)-3-fluorophenyl)-5-hydroxymethyl oxazolidin-2-one]",,0.5 µg/mL,0.5 µg/mL,Minimum Lethal Dose (MLD) (ICR mice): >1000 mg/kg
"Cc1nnc(-c2ccc(-c3ccc(N4C[C@H](COC(=O)CN)OC4=O)cc3F)cn2)o1.Cl [Compound 48, (R)-3-(4-(2-(2-methyl-[1,3,4]oxadiazol-5-yl)pyridin-5-yl)-3-fluorophenyl)-5-glycyloxymethyl oxazolidin-2-one hydrochloride]",> 50 mg/mL,0.5 µg/mL,1 µg/mL,
"CC(C)[C@H](N)C(=O)OC[C@H]1CN(c2ccc(-c3ccc(-c4nnnn4C)nc3)c(F)c2)C(=O)O1 [Compound 66, (R)-3-(4-(2-(1-methyltetrazol-5-yl)pyridin-5-yl)-3-fluorophenyl)-5-(L-valyloxy)methyl oxazolidin-2-one trifluoroacetic acid]",4.7 mg/mL,,,
"Cl.Cn1nnc(-c2ccc(-c3ccc(N4C[C@H](COC(=O)[C@@H]5CCCN5)OC4=O)cc3F)cn2)n1 [Compound 47, (R)-3-(4-(2-(2-methyltetrazol-5-yl)pyridin-5-yl)-3-fluorophenyl)-5-(L-prolinyloxy)methyl oxazolidin-2-one hydrochloride]",2 mg/mL,0.5 µg/mL,0.25 µg/mL,
"C[C@H](N)C(=O)OC[C@H]1CN(c2ccc(-c3ccc(-c4nnn(C)n4)nc3)c(F)c2)C(=O)O1 [Compound 42, (R)-3-(4-(2-(2-methyltetrazol-5-yl)pyridin-5-yl)-3-fluorophenyl)-5-(L-alanyloxy)methyl oxazolidin-2-one trifluoroacetic acid]",,,,"Solubility ([1]; listed as compound 42, trifluoroacetic acid): > 50 mg/mL; Solubility ([1]; trifluoroacetic acid): >50 mg/mL"
"Cc1nnc(-c2ccc(-c3ccc(N4C[C@H](COC(=O)[C@@H](N)C(C)C)OC4=O)cc3F)cn2)o1 [Compound 53, (R)-3-(4-(2-(2-methyl-[1,3,4]oxadiazol-5-yl)pyridin-5-yl)-3-fluorophenyl)-5-(L-valyloxy)methyl oxazolidin-2-one trifluoroacetic acid]",30.3 mg/mL,,,
"Cc1nnc(-c2ccc(-c3ccc(N4C[C@H](COC(=O)[C@H](C)N)OC4=O)cc3F)cn2)o1 [Compound 51, (R)-3-(4-(2-(2-methyl-[1,3,4]oxadiazol-5-yl)pyridin-5-yl)-3-fluorophenyl)-5-(L-alanyloxy)methyl oxazolidin-2-one trifluoroacetic acid]",> 50 mg/mL,,,
"Cc1nnc(-c2ccc(-c3ccc(N4C[C@H](COC(=O)[C@H](C)N)OC4=O)cc3F)cn2)o1.Cl [Compound 52, (R)-3-(4-(2-(2-methyl-[1,3,4]oxadiazol-5-yl)pyridin-5-yl)-3-fluorophenyl)-5-(L-alanyloxy)methyl oxazolidin-2-one hydrochloride]",> 50 mg/mL,0.5 µg/mL,1 µg/mL,
"Cn1nnnc1-c1ccc(-c2ccc(N3C[C@H](COC(=O)CCN)OC3=O)cc2F)cn1 [Compound 68, (R)-3-(4-(2-(1-methyltetrazol-5-yl)pyridin-5-yl)-3-fluorophenyl)-5-(β-alanyloxy)methyl oxazolidin-2-one trifluoroacetic acid]",2.6 mg/mL,,,
"Cn1nnc(-c2ccc(-c3ccc(N4C[C@H](COC(=O)CCN)OC4=O)cc3F)cn2)n1 [Compound 50, (R)-3-(4-(2-(2-methyltetrazol-5-yl)pyridin-5-yl)-3-fluorophenyl)-5-(β-alanyloxy)methyl oxazolidin-2-one hydrochloride]",,,,Solubility ([1]; hydrochloride): 20.4 mg/mL
"C[C@H](N)C(=O)OC[C@H]1CN(c2ccc(-c3ccc(-c4nnn(C)n4)nc3)c(F)c2)C(=O)O1.Cl [Compound 44, (R)-3-(4-(2-(2-methyltetrazol-5-yl)pyridin-5-yl)-3-fluorophenyl)-5-(L-alanyloxy)methyl oxazolidin-2-one hydrochloride]",> 50 mg/mL,0.5 µg/mL,0.25 µg/mL,
"Cl.Cn1nnc(-c2ccc(-c3ccc(N4C[C@H](COC(=O)CN)OC4=O)cc3F)cn2)n1 [Compound 45, (R)-3-(4-(2-(2-methyltetrazol-5-yl)pyridin-5-yl)-3-fluorophenyl)-5-glycyloxymethyl oxazolidin-2-one hydrochloride]",,0.5 µg/mL,0.25 µg/mL,Solubility [1]: 12 mg/mL
"C[C@H](N)C(=O)OC[C@H]1CN(c2ccc(-c3ccc(-c4nnnn4C)nc3)c(F)c2)C(=O)O1 [Compound 64, (R)-3-(4-(2-(1-methyltetrazol-5-yl)pyridin-5-yl)-3-fluorophenyl)-5-(L-alanyloxy)methyl oxazolidin-2-one trifluoroacetic acid]",> 50 mg/mL,,,
"Cn1nnc(-c2ccc(-c3ccc(N4C[C@H](COC(=O)CCN)OC4=O)cc3F)cn2)n1 [Compound 49, (R)-3-(4-(2-(2-methyltetrazol-5-yl)pyridin-5-yl)-3-fluorophenyl)-5-(β-alanyloxy)methyl oxazolidin-2-one trifluoroacetic acid]",,0.5 µg/mL,0.25 µg/mL,Solubility ([1]; trifluoroacetic acid): 2.6 mg/mL
"Cn1nnc(-c2ccc(-c3ccc(N4C[C@H](COP(=O)([O][Na+])[O][Na+])OC4=O)cc3F)cn2)n1 [Compound 59, (R)-[3-(4-(2-(2-methyltetrazol-5-yl)pyridin-5-yl)-3-fluorophenyl)-2-oxo-5-oxazolidinyl]methyl disodiumphosphate]",> 50 mg/mL,0.5 µg/mL,0.25 µg/mL,
"Cc1nnc(-c2ccc(-c3ccc(N4C[C@H](COC(=O)[C@@H](N)C(C)C)OC4=O)cc3F)cn2)o1.Cl [Compound 54, (R)-3-(4-(2-(2-methyl-[1,3,4]oxadiazol-5-yl)pyridin-5-yl)-3-fluorophenyl)-5-(L-valyloxy)methyl oxazolidin-2-one hydrochloride]",2.9 mg/mL,0.5 µg/mL,1 µg/mL,
